From US12370193B2, “Method of inhibiting TREM-1” (UNIVERSITY OF FLORIDA RESEARCH FOUNDATION, INCORPORATED, priority 2019, dated 2025)

Test system: RAW264.7 cells
Assay: LXR target, cytokine and SENP gene expression in LPS-stimulated RAW264.7 cells
Format: cell-based, mouse
Method: FIGS. 3A-3D: Comparison with LXR agonist. […] FIGS. 3C and 3D show log 2 fold change of SENP3 expression in RAW264.7 cells mRNAseq and q-PCR.
Quantitative RT-PCR: Total RNA was extracted from EL4 or RAW264.7 cells using RNeasy Plus Micro Kit (Qiagen) and the RNA was reverse transcribed using the ABI reverse transcription kit (Applied Biosystems/Thermo Fisher Scientific, Waltham MA). Quantitative PCR was performed with a 7900HT Fast Real Time PCR System (Applied Biosystems) using SYBR green (Roche).
mRNA sequencing analysis: RAW264.7 cells RNA extraction protocol for RNA seq was derived from Qiagen Kit-74106. Total RNA was quantified using the Qubit 2.0 Fluorometer (Invitrogen, Carlsbad, CA) and run on the Agilent 2100 Bioanalyzer (Agilent Technologies, Santa Clara, CA) for quality assessment. RNA samples of good quality with RNA Integrity Number (RIN)>8.0 were further processed. A RNase-free working environment was maintained and RNase-free tips, Eppendorf tubes and plates were utilized for the subsequent steps. Messenger RNA was selectively isolated from total RNA (300 ng input) using poly-T oligos attached to magnetic beads and converted to sequence-ready libraries using the TruSeq stranded mRNA sample prep protocol (Cat. #: RS-122-2101, Illumina, San Diego, CA). The final libraries were validated on the bioanalyzer DNA chips and qPCR quantified using primers that recognize the illumina adaptors. The libraries were then pooled at equimolar ratios, quantified using qPCR and loaded onto the NextSeq 500 flow cell at 1.8 pM final concentration. They were sequenced using the high-output, paired-end, 75-bp chemistry. Demultiplexed and quality filtered raw reads (fastq) generated from the NextSeq 500 were trimmed (adaptor sequences) using Flexbar 2.4 and aligned to the mouse reference database (mm9) using TopHat version 2.0.9 (Trapnell et al., 2009). HTseq-count version 0.6.1 was used to generate gene counts and differential gene expression analysis was performed using Deseq2 (Anders and Huber, 2010).

## Cc1cc(CN2CCN(Cc3ccncc3)CC2)ccc1-c1ccc(C(O)(C(F)(F)F)C(F)(F)F)cc1 [SR1903, 1,1,1,3,3,3-hexafluoro-2-(2′-methyl-4′-((4-(pyridin-4-ylmethyl)piperazin-1-yl)methyl)-[1,1′-biphenyl]-4-yl)propan-2-ol]
LPS-stimulated RAW264.7 cells
  expression of ACACA and FASN: increased
LPS-stimulated RAW264.7 cells, RNA sequencing
  expression of LXR target genes including ABCG1 and SCD: increased the expression
LPS-stimulated RAW264.7 cells, RNA sequencing, confirmed by qPCR
  expression of IL6 and IL33: robustly dampened
LPS-stimulated RAW cells, RNA sequencing
  expression of SENP2 and SENP6: repressed
LPS-stimulated RAW cells, RNA sequencing, qPCR
  expression of SENP3: increased the expression
